In patent US20260139254A1, “INTERFERING RNA FOR INHIBITING TOP1 GENE EXPRESSION AND USE THEREOF” (JENKEM TECHNOLOGY CO., LTD. (BEIJING), priority 2022, published 2026):
[Ψ] = pseudouridine; d = 2'-deoxy (DNA); r = 2'-OH (RNA)

Columns and labels:
[1] = system: HCT116 human colon cancer cells; experiment: Toxicity of LNP-siTOP1 and irinotecan on HCT116 cells (CCK-8 cell viability); type: cell-based; conditions: Homo sapiens, HCT-116; HCT116, 72 h, CCK-8
Protocol: (§1) After 72 h of transfection, 10 μL of CCK-8 solution was added to each well, and the cells were cultured in the incubator with 5% CO2 at 37° C. for another 4 h. The absorbance value at 450 nm was measured using a microplate reader. Cell viability was calculated according to the following formula: […]
(§2) On the day before transfection, HCT116 human colon cancer cells were seeded into a 96-well cell culture plate at 5000 cells/well, the culture medium being IMDM containing 10% FBS and 1% Penicillin-Streptomycin, and after plating, the cell culture plate was placed in an incubator with 5% CO2 at 37° C. for 24 h to allow the cells to adhere to the wall. 3 replicate wells were made for each group. On the day of transfection, the culture medium was changed to an IMDM culture medium without antibiotics (containing 10% FBS). LNP-siTOP1-1604 diluted with Opti-MEM culture medium was added, and the working concentrations of the siRNA were 500, 200, 100, 50, 20, and 5 nM. The control groups were Blank (Opti-MEM at the equal volume) and the positive control drug, irinotecan, at concentrations of 500, 200, 100, 50, 20, 5, and 1 μM. The cell culture plate was placed in the incubator with 5% CO2 at 37° C., and the cells were cultured for another 72 h. The cell viability was detected according to the method in Example 3 (Table 10). Fitting was performed using Graphpad software.

[2] = as above; type: cell-based, human; conditions: human, HCT116 colon cancer cells, HCT116, 72 h
Protocol: as §1, §2

TOP1 mRNA = experiment: Inhibitory effects of modified sequences of siTOP1-1604 on TOP1 mRNA in PC-3 cells; type: cell-based, human; conditions: PC-3, siRNA 50 nM
Protocol: PC-3 human prostate cancer cells were transfected with the modified siTOP1 according to the method in Example 2 at a siRNA working concentration of 50 nM. TOP1 mRNA levels were detected 48 h after the transfection. The control groups were Blank (Opti-MEM at the equal volume), Lipofectamine™ RNAiMAX (Lipo) transfection reagent, and the positive control unmodified siTOP-1604.

Row | Compound | IC50 [1] [µM] | viability at 72 h, 1 µM ([2]; 1 μM) [%] | viability at 72 h, 5 µM ([2]; 5 μM) [%] | viability at 72 h, 20 µM ([2]; 20 μM) [%] | viability at 72 h, 50 µM ([2]; 50 μM) [%] | viability at 72 h, 100 µM ([2]; 100 μM) [%] | viability at 72 h, 200 µM ([2]; 200 μM) [%] | viability at 72 h, 500 µM ([2]; 500 μM) [%] | Expression of TOP1 mRNA inhibited to (TOP1 mRNA; 48 h, compared to the control groups) [%] | Relative expression level, mean value (TOP1 mRNA; 48 h after transfection, Blank = 100.00)
1 | CCc1c2c(nc3ccc(OC(=O)N4CCC(N5CCCCC5)CC4)cc13)-c1cc3c(c(=O)n1C2)COC(=O)[C@]3(O)CC [Irinotecan] | 9.33 | 109 | 55.4 | 31.8 | 16.9 | 9.69 | 8.18 | 11.9 | – | –
2 | siTOP1-1604-m4: Pseudouridine-modified siTOP1-1604; sense strand SEQ ID NO: 55, antisense strand SEQ ID NO: 56 (sense GUGUGGACAAGAUCCGGAATT; antisense UUCCGGAUCUUGUCCACACTT; sense: sugars from the 5' end r19 d2, [Ψ] at 2, 4, 13, backbone not given here; antisense: sugars from the 5' end r19 d2, [Ψ] at 1, 2, 8, 10, 11, 13, backbone not given here) | – | – | – | – | – | – | – | – | 4.3 | 4.30
